From patent US8334289B2, “Pyridin-2-one compounds and their use as modulators of the dopamine D3 receptor” (Abbott GmbH & Co. KG, priority 2004, dated 2012)

How the values were obtained:
[1] = molecular target: T1, human dopamine D3 receptors (Homo sapiens, UniProt P35462); assay: Dopamine D3 receptor binding, displacement of [125I]-iodosulpiride; conditions: membranes from HEK-293 cells stably expressing human D3 receptor; 0.1 nM [125I]-iodosulpiride; 25° C., 60 minutes
T1 construct: expressed in transfected cells; host or cells: HEK-293 (membranes)
T1 sequence (P35462 whole entry): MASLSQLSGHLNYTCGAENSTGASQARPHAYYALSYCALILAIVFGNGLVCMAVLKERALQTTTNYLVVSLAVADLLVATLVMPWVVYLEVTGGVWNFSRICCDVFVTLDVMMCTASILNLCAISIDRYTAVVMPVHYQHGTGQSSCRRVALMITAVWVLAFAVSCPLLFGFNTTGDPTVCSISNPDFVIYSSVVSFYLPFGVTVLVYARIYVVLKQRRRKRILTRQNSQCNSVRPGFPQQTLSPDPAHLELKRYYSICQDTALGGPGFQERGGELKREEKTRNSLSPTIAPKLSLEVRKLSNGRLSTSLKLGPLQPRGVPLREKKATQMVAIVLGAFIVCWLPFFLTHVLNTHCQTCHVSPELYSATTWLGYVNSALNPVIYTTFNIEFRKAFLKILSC
Method: (§1) The substance to be tested was dissolved either in methanol/Chremophor® (BASF-AG) or in dimethyl sulfoxide and then diluted with water to the desired concentration.
(§2) Triplicate mixtures were carried out.
The incubation buffer contained 50 mM Tris, 120 mM NaCl, 5 mM KCl, 2 mM CaCl2, 2 mM MgCl2 and 0.1% bovine serum albumin, 10 μM quinolone, 0.1% ascorbic acid (prepared fresh each day). The buffer was adjusted to pH 7.4 with HCl.
(§3) After incubation at 25° C. for 60 minutes, the mixtures were filtered under vacuum through Whatman GF/B glass fiber filters using a cell harvester. The filters were transferred by a filter transfer system into scintillation vials. After addition of 4 ml of Ultima Gold® (Packard), the samples were shaken for one hour and then the radioactivity was counted in a beta counter (Packard, Tricarb 2000 or 2200CA). The cp values were converted into dpm by means of a standard quench series with the aid of the instrument's own program.
(§4) Evaluation of the inhibition plots took place by iterative nonlinear regression analysis using the Statistical Analysis System (SAS) similar to the “LIGAND” program described by Munson and Rodbard.

[2] = molecular target: T2, human dopamine D2L receptors (long isoform) (Homo sapiens, UniProt P14416); assay: Dopamine D2L receptor binding, displacement of [125I]-iodospiperone; conditions: Ki(D2L)/Ki(D3); membranes from HEK-293 cells with human D2L and D3 receptors
T2 construct: expressed in transfected cells; host or cells: HEK-293 (membranes)
T2 sequence (P14416 whole entry, canonical isoform): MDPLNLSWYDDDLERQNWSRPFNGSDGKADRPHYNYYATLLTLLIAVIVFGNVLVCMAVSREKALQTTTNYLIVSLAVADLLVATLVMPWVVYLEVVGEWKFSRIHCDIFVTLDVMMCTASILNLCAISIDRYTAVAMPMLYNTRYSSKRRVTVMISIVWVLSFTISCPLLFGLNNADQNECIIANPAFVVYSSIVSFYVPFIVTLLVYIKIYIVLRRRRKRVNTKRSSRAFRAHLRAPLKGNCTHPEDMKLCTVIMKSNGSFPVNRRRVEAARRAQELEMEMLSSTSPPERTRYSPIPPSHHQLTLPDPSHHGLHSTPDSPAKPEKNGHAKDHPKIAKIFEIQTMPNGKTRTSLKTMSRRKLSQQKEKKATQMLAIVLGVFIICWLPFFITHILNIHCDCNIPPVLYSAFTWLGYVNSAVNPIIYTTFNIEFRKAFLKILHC
Method: as §1, §2
The incubation buffer contained 50 mM Tris, 120 mM NaCl, 5 mM KCl, 2 mM CaCl2, 2 mM MgCl2 and 0.1% bovine serum albumin. The buffer was adjusted to pH 7.4 with HCl.
as §3, §4

SMILES: CCCc1cc(N2CCN(CCCCn3ccc(C)cc3=O)CC2)nc(C(C)(C)C)n1.Cl [Example 3, 4-(2-tert-Butyl-6-propylpyrimidin-4-yl)-1-[4-(4-methyl-2-oxopyridin-1(2H)-yl)butyl]piperazin-1-ium chloride]
- Ki [1]: 0.84 nM
- Selectivity vs. D2L [2]: 137

SMILES: CCCc1cc(N2CCN(CCCCn3cccc(OC)c3=O)CC2)nc(C(C)(C)C)n1 [Example 5, 1-{4-[4-(2-tert-Butyl-6-propylpyrimidin-4-yl)piperazin-1-yl]butyl}-3-methoxy-1H-pyridin-2-one]
- Ki [1]: 1.2 nM
- Selectivity vs. D2L [2]: 51

SMILES: COc1cccn(CCCCN2CCN(c3cc(C(F)(F)F)nc(C(C)(C)C)n3)CC2)c1=O [Example 6, 1-{4-[4-(2-tert-Butyl-6-trifluoromethylpyrimidin-4-yl)piperazin-1-yl]butyl}-3-methoxy-1H-pyridin-2-one]
- Ki [1]: 2.2 nM
- Selectivity vs. D2L [2]: 74

SMILES: CCCc1cc(N2CCN(CCCCn3cccc(C)c3=O)CC2)nc(C(C)(C)C)n1 [Example 7, 1-{4-[4-(2-tert-Butyl-6-propylpyrimidin-4-yl)piperazin-1-yl]butyl}-3-methyl-1H-pyridin-2-one]
- Ki [1]: 1.25 nM
- Selectivity vs. D2L [2]: 129

SMILES: Cc1cccn(CCCCN2CCN(c3cc(C(F)(F)F)nc(C(C)(C)C)n3)CC2)c1=O [Example 11, 1-{4-[4-(2-tert-Butyl-6-trifluoromethylpyrimidin-4-yl)piperazin-1-yl]butyl}-3-methyl-1H-pyridin-2-one]
- Ki [1]: 2.31 nM
- Selectivity vs. D2L [2]: 74
